In US8088805B2, “Inhibitors of histone deacetylase” (MethylGene Inc., priority 2004, dated 2012):

Assays:
SW48 colon cancer cells = experiment: Human tumor xenograft in vivo, SW48; conditions: Mus musculus, 30 mg/kg ip, mice, read-out: % Inhibition (relative to vehicle control) SW48
Method: (§1) Eight to ten week old female BCD1 mice (Taconic Labs, Great Barrington, N.Y.) were injected subcutaneously in the flank area with 2×10^6 preconditioned HCT116 human colorectal carcinoma cells, SW48 colon cancer cells, and A549 lung cancer cells. Preconditioning of these cells was done by a minimum of three consecutive tumor transplantations in the same strain of nude mice. Subsequently, tumor fragments of approximately 30 mgs were excised and implanted subcutaneously in mice, in the left flank area, under Forene anesthesia (Abbott Labs, Geneva, Switzerland). When the tumors reached a mean volume of 100 mm^3, the mice were treated intraperitoneally by daily injection, with a solution of the histone deacetylase inhibitor in DMSO, at a starting dose of 10 mg/kg. The optimal dose of the HDAC inhibitor was established by dose response experiments according to standard protocols. Tumor volume was calculated every second day post infusion according to standard methods (e.g., Meyer et al., Int. J. Cancer 43: 851-856 (1989)).

[1] = system: HCT116 human colorectal carcinoma cells; experiment: Human tumor xenograft in vivo, HCT116; conditions: Mus musculus, HCT-116; 30 mg/kg ip, mice; read-out: % Inhibition (relative to vehicle control) HCT116
Method: as §1

HCT116 cells = experiment: MTT assay; format: cell-based; conditions: Homo sapiens, HCT-116, 72 hours
Method: HCT116 cells (2000/well) were plated into 96-well tissue culture plates one day before compound treatment. Compounds at various concentrations were added to the cells. The cells were incubated for 72 hours at 37° C. in 5% CO2 incubator. MTT (3-[4,5-dimethylthiazol-2-yl]-2,5diphenyl tetrazolium bromide, Sigma) was added at a final concentration of 0.5 mg/ml and incubated with the cells for 4 hours before one volume of solubilization buffer (50% N,N-dimethylformamide, 20% SDS, pH 4.7) was added onto the cultured cells. After overnight incubation, solubilized dye was quantified by colorimetric reading at 570 nM using a reference at 630 nM using an MR700 plate reader (Dynatech Laboratories Inc.). OD values were converted to cell numbers according to a standard growth curve of the relevant cell line. The concentration which reduces cell numbers to 50% of that of solvent treated cells is determined as MTT IC50. In Table 14, “a” indicates activity of ≦0.1 μM, “b” indicates activity of ≦1 μM, and “c” indicates activity of ≦5 μM.

[2] = system: Histone H4 acetylation in T24 human bladder cancer cells; experiment: Histone H4 acetylation in whole cells by immunoblots; format: cell-based; conditions: ratio of EC50 of compound to EC50 of control MS-275, 16 h
Method: T24 human bladder cancer cells growing in culture were incubated with HDAC inhibitors for 16 h. Histones were extracted from the cells after the culture period as described by M. Yoshida et al. (J. Biol. Chem. 265(28): 17174-17179 (1990)). […] of total histone protein was loaded onto SDS/PAGE and transferred to nitrocellulose membranes. Membranes were probed with polyclonal antibodies specific for acetylated histone H-4 (Upstate Biotech Inc.), followed by horse radish peroxidase conjugated secondary antibodies (Sigma). Enhanced Chemiluminescence (ECL) (Amersham) detection was performed using Kodak films (Eastman Kodak). Acetylated H-4 signal was quantified by densitometry. Data are presented as the ratio of the concentration effective for […] the acetylated H-4 signal by 50% (EC50) using the indicated compound of the invention to a control compound, MS-275. If the indicated ratio is 1, then the compound of the invention is as effective as the MS-275 control compound. […] Further information regarding the MS-275 compound can be found in Suzuki et al., J. Med. Chem. 1999, pp. 3001-3003.

[3] = molecular target: T1, cloned recombinant human HDAC-1 enzyme (Homo sapiens, UniProt Q13547); experiment: HDAC-1 enzymatic inhibition, Assay 1 ([3H]-acetylated histone substrate); format: biochemical; conditions: Assay 1: [3H]-labeled acetylated histone substrate, recombinant hHDAC-1
T1 construct: made in house; host or cells: Baculovirus insect cell expression system
T1 sequence (Q13547 whole entry): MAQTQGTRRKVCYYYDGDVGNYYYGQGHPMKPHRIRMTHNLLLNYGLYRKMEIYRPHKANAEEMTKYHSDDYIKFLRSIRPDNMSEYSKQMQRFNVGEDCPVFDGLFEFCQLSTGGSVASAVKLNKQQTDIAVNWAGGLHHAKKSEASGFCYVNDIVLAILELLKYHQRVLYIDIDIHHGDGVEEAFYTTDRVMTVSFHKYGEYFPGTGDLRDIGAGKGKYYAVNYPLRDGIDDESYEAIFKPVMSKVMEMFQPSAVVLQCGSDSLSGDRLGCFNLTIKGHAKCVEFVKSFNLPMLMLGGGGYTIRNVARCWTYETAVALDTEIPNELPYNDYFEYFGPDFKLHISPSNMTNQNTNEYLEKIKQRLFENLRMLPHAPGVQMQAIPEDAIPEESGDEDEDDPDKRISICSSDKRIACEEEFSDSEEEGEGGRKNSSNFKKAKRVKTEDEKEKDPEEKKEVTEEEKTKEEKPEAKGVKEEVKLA
Method: Assay 1. HDAC inhibitors were screened against a cloned recombinant human HDAC-1 enzyme expressed and purified from a Baculovirus insect cell expression system. For deacetylase assays, 20,000 cpm of the [^3H]-metabolically labeled acetylated histone substrate (M. Yoshida et al., J. Biol. Chem. 265(28): 17174-17179 (1990)) was incubated with 30 μg of the cloned recombinant hHDAC-1 for 10 minutes at 37° C. The reaction was stopped by adding acetic acid (0.04 M, final concentration) and HCl (250 mM, final concentration). The mixture was extracted with ethyl acetate and the released [^3H]-acetic acid was quantified by scintillation counting. For inhibition studies, the enzyme was preincubated with compounds at 4° C. for 30 minutes prior to initiation of the enzymatic assay. IC50 values for HDAC enzyme inhibitors were determined by performing dose response curves with individual compounds and determining the concentration of inhibitor producing fifty percent of the maximal inhibition.
(§2) Assay 1 was used to measure HDAC activity of compounds 10c, 13e, 16d, 26b, 44, 47, 61a, 61b, 63, 134, 138, and 308. Assay 2 was used to measure HDAC activity of compounds 361, 366, 367, 368, 369, 370, 371, 372, 373, 374, 375, 376, 377, and 378. In Table 14, “a” indicates activity of ≦0.1 μM, “b” indicates activity of ≦1 μM, “c” indicates activity of ≦5 μM, and “d” indicates activity of >5 μm. For the H4-Ac T24 EC vs. MS-275 assay in Table 14, “u” indicates less than 1, “v” indicates 1, and “w” indicates greater than 1. For the H3 Ac t24 assay in Table 14, “x” indicates activity of ≦1 μM, “y” indicates activity of ≦10 μM, and “z” indicates activity of ≦20 μM.

Human HDAC-1 = Human HDAC-1 (Homo sapiens, UniProt Q13547); experiment: HDAC-1 enzymatic inhibition, Assay 2 (Boc-Lys(Ac)-AMC, Fluor-de-Lys); format: biochemical; conditions: Assay 2: Boc-Lys(Ac)-AMC substrate, fluorescence; read-out: HDAC1 IC50
Human HDAC-1, sequence (Q13547 whole entry): as above
Method: Assay 2. The following protocol was also used to assay the compounds of the invention. In the assay, the buffer used was 25 mM HEPES, pH 8.0, 137 mM NaCl, 2.7 mM KCl, 1 mM MgCl2 and the substrate was Boc-Lys(Ac)-AMC in a 50 mM stock solution in DMSO. The enzyme stock solution was 4.08 μg/mL in buffer. The compounds were pre-incubated (2 μl in DMSO diluted to 13 μl in buffer for transfer to assay plate) with enzyme (20 μl of 4.08 μg/ml) for 10 minutes at room temperature (35 μl pre-incubation volume). The mixture was pre-incubated for 5 minutes at room temperature. The reaction was started by bringing the temperature to 37° C. and adding […] substrate. Total reaction volume was 50 μl. The reaction was stopped after 20 minutes by addition of 50 μl developer, prepared as directed by Biomol (Fluor-de-Lys developer, Cat. # KI-105). A plate was incubated in the dark for 10 minutes at room temperature before reading (λEx=360 nm, λEm=470 nm, Cutoff filter at 435 nm).
as §2

SMILES | IC50 (HCT116 cells) [nM] | IC50 [3] [nM] | IC50 (Human HDAC-1) [nM] | inhibition in vivo at 30 mg/kg (SW48 colon cancer cells) [%] | inhibition in vivo at 30 mg/kg [1] [%] | H4-Ac T24 EC vs. MS-275 [2]
COc1ccc(CCNc2ccnc(NCc3ccc(C(=O)Nc4ccccc4N)cc3)n2)cc1OC [10a, N-(2-Amino-phenyl)-4-({4-[2-(3,4-dimethoxy-phenyl)-ethylamino]-pyrimidin-2-ylamino}-methyl)-benzamide] | – | – | – | 23 | 16.1 | –
Nc1ccccc1NC(=O)c1ccc(CNc2nccc(-c3ccc(CN4CCOCC4)cc3)n2)cc1 [compound 44, N-(2-Amino-phenyl)-4-{[4-(4-morpholin-4-ylmethyl-phenyl)-pyrimidin-2-ylamino]-methyl}-benzamide] | ≤ 100 | 1000 to 5000 | – | – | – | v (“v” indicates 1)
Nc1ccccc1NC(=O)c1ccc(CNc2nc3ccc(O)cc3s2)cc1 [compound 134, N-(2-Amino-phenyl)-4-[(6-hydroxy-benzothiazol-2-ylamino)-methyl]-benzamide] | 100 to 1000 | 1000 to 5000 | – | – | – | u (“u” indicates less than 1)
COc1cc(NCc2ccc3oc(C(=O)Nc4ccccc4N)cc3c2)cc(OC)c1OC [compound 308, 5-[(3,4,5-Trimethoxy-phenylamino)-methyl]-benzofuran-2-carboxylic acid (2-amino-phenyl)-amide] | 100 to 1000 | 1000 to 5000 | – | – | – | w (“w” indicates greater than 1)
Nc1ccccc1NC(=O)c1ccc(N2CC[C@@H](Oc3cccnc3)C2)cc1 [compound 368, (R)—N-(2-Aminophenyl)-4-(3-(pyridin-3-yloxy)pyrrolidin-1-yl)benzamide] | 100 to 1000 | – | 100 to 1000 | – | – | –
Nc1ccccc1NC(=O)c1ccc(N2CC[C@@H](Nc3ccccc3)C2)cc1 [compound 370, (R)—N-(2-Aminophenyl)-4-(3-(phenylamino)pyrrolidin-1-yl)benzamide] | 1000 to 5000 | – | 1000 to 5000 | – | – | –
Nc1ccccc1NC(=O)c1ccc(N2CC[C@H](Oc3ccccc3)C2)cc1 [compound 371, (S)—N-(2-Aminophenyl)-4-(3-phenoxypyrrolidin-1-yl)benzamide] | 100 to 1000 | – | 100 to 1000 | – | – | –
COC(=O)c1ccc(O[C@H]2CCN(c3ccc(C(=O)Nc4ccccc4N)cc3)C2)cc1 [compound 372, (S)-Methyl-4-(1-(4-(2-aminophenylcarbamoyl)phenyl)pyrrolidin-3-yloxy)benzoate] | 100 to 1000 | – | ≤ 100 | – | – | –
Nc1ccccc1NC(=O)c1ccc(N2CC[C@H](Oc3ccc(C(=O)O)cc3)C2)cc1 [compound 373, (S)-4-(1-(4-(2-Aminophenylcarbamoyl)phenyl)pyrrolidin-3-yloxy)benzoic acid] | > 5000 | – | 100 to 1000 | – | – | –
Nc1ccccc1NC(=O)c1ccc(N2CC[C@H](Oc3ccc(Oc4ccccc4)cc3)C2)cc1 [compound 376, (S)—N-(2-Aminophenyl)-4-(3-(4-phenoxyphenoxy)pyrrolidin-1-yl)benzamide] | 1000 to 5000 | – | 1000 to 5000 | – | – | –
Nc1ccccc1NC(=O)c1ccc(N2CC[C@H](Oc3ccc([N+](=O)[O-])cc3)C2)cc1 [compound 377, (S)—N-(2-Aminophenyl)-4-(3-(4-nitrophenoxy)pyrrolidin-1-yl)benzamide] | 100 to 1000 | – | 100 to 1000 | – | – | –

Continued, in another order:

IC50 (HCT116 cells) [nM] | IC50 [3] [nM] | IC50 (Human HDAC-1) [nM] | SMILES | inhibition in vivo at 30 mg/kg (SW48 colon cancer cells) [%] | inhibition in vivo at 30 mg/kg [1] [%] | H4-Ac T24 EC vs. MS-275 [2]
100 to 1000 | 1000 to 5000 | – | COc1cccc(CCNc2ccnc(NCc3ccc(C(=O)Nc4ccccc4N)cc3)n2)c1 [10c, N-(2-Amino-phenyl)-4-({4-[2-(3-methoxy-phenyl)-ethylamino]-pyrimidin-2-ylamino}-methyl)-benzamide] | – | – | v (“v” indicates 1)
100 to 1000 | 1000 to 5000 | – | Nc1ccccc1NC(=O)c1ccc(CNc2ncc(-c3cccnc3)cn2)cc1 [13e, N-(2-Amino-phenyl)-4-[(5-pyridin-3-yl-pyrimidin-2-ylamino)-methyl]-benzamide] | – | – | v (“v” indicates 1)
100 to 1000 | 100 to 1000 | – | Nc1ccccc1NC(=O)c1ccc(CNc2nccc(-c3ccc(F)c(F)c3)n2)cc1 [16d, N-(2-Amino-phenyl)-4-{[4-(3,4-difluoro-phenyl)-pyrimidin-2-ylamino]-methyl}-benzamide] | – | – | v (“v” indicates 1)
≤ 100 | 1000 to 5000 | – | CSc1nc(NCc2ccc(C(=O)Nc3ccccc3N)cc2)cc(-c2cccnc2)n1 [61a, N-(2-Amino-phenyl)-4-[(2-methylsulfanyl-6-pyridin-3-yl-pyrimidin-4-ylamino)-methyl]-benzamide] | – | – | v (“v” indicates 1)
≤ 100 | 1000 to 5000 | – | Nc1ccccc1NC(=O)c1ccc(CNc2cc(-c3cccnc3)ncn2)cc1 [61b, N-(2-Amino-phenyl)-4-[(6-pyridin-3-yl-pyrimidin-4-ylamino)-methyl]-benzamide] | – | – | u (“u” indicates less than 1)
100 to 1000 | 1000 to 5000 | – | Nc1ccccc1NC(=O)c1ccc(CNc2ccnc(-c3cccnc3)n2)cc1 [compound 47, N-(2-Amino-phenyl)-4-[(2-pyridin-3-yl-pyrimidin-4-ylamino)-methyl]-benzamide] | – | – | u (“u” indicates less than 1)
100 to 1000 | 1000 to 5000 | – | Nc1ccccc1NC(=O)c1ccc(CNc2cncc(-c3cccnc3)n2)cc1 [compound 63, N-(2-Amino-phenyl)-4-[(6-pyridin-3-yl-pyrazin-2-ylamino)-methyl]-benzamide] | – | – | v (“v” indicates 1)
